Broadly, the IC50 is the concentration needed to halve the response being measured.

Here are results for twelve compounds from US20260015350A1, “AZAQUINAZOLINE PAN-KRAS INHIBITORS” (Mirati Therapeutics, Inc., priority 2022, published 2026).

Assay [1] deals with KRas-mediated phosphorylation of ERK in H727 cells. Briefly: Inhibition of KRas-mediated phosphorylation of ERK (Cisbio HTRF pERK), H727 cells. The format is cell-based. Particulars: Homo sapiens, NCI-H727, H727 cells; HTRF pERK. A digest of the protocol:
(§1)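 Signal read by HTRF (d2/Cryptate antibody pair, 2 hr room-temperature incubation on lysate). Cells: 6,000 per well, 3 hr compound exposure. Titration: 10 uM highest, 3-fold, 10 points.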
A general note: TR-FRET usually uses a lanthanide donor and a delayed reading to cut background.

Assay [2] concerns KRas-mediated phosphorylation of ERK in PSN1 cells. Nature of the assay: Inhibition of KRas-mediated phosphorylation of ERK (Cisbio HTRF pERK), PSN1 cells. The following applies: Homo sapiens. The assay is classed as cell-based. On the procedure:
(§2) Inhibition of KRas Phosphorylation of ERK (HTRF) by Exemplary Compounds of Formula (I)
(§3) Cisbio HTRF Advanced PERK Assay Catalog #64AERPEH
(§4) Day 1: Seed 6,000 cells/well-25 μl/well in 384-well white solid bottom plate; RPM1_10% FBS. Incubate overnight at 37° C./5% CO2.
(§5) Incubate for 4 hours at room temperature covered.
(§6) Read HTRF using ClarioStar

Assay [3] concerns KRas-mediated phosphorylation of ERK in MKN1 cells. Briefly: Inhibition of KRas-mediated phosphorylation of ERK (Cisbio HTRF pERK), MKN1 cells. The assay is classed as cell-based. Particulars: Homo sapiens, MKN-1. On the procedure:
as §2, §3, §4, §5, §6

Assay [4] deals with T1, KRas^G12V (Homo sapiens, UniProt P01116, G12V).
T1 construct: Biotinylated KRas (corresponding to amino acids 1-169, produced at Accelegan Inc.); biotin (biotinylated); purchased Accelegan Inc
Nature of the assay: KRas binding assay (TR-FRET tracer displacement), KRas G12V.

Assay [5] addresses T2, KRas^G12D (Homo sapiens, UniProt P01116, G12D).
T2 construct: Biotinylated KRas (corresponding to amino acids 1-169, produced at Accelegan Inc.); biotin (biotinylated); purchased Accelegan Inc
Nature of the assay: KRas binding assay (TR-FRET tracer displacement), KRas G12D.

Assay [6] deals with KRas-mediated phosphorylation of ERK in AsPC-1 cells. Briefly: Inhibition of KRas-mediated phosphorylation of ERK (Cisbio HTRF pERK), AsPC-1 cells. The format is cell-based. Particulars: Homo sapiens, ASPC1, AsPC-1 cells; HTRF pERK. A digest of the protocol: as §1
Assay [7] addresses T3, KRas^G12R (Homo sapiens, UniProt P01116, G12R).
T3 construct: Biotinylated KRas (corresponding to amino acids 1-169, produced at Accelegan Inc.); biotin (biotinylated); purchased Accelegan Inc
Briefly: KRas binding assay (TR-FRET tracer displacement), KRas G12R.

T1 sequence (P01116 1-169 isoform P01116-2 G12V): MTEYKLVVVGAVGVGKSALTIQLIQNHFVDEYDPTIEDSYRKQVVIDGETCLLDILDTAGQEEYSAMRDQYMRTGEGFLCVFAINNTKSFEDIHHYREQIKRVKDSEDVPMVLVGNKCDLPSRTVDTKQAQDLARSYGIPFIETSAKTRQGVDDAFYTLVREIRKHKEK
T3 sequence (P01116 1-169 isoform P01116-2 G12R): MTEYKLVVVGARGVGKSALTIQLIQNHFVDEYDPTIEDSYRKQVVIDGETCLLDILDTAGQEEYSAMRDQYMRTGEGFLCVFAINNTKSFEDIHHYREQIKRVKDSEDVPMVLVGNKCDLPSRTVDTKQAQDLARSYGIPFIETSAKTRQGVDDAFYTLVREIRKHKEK
T2 sequence (P01116 1-169 isoform P01116-2 G12D): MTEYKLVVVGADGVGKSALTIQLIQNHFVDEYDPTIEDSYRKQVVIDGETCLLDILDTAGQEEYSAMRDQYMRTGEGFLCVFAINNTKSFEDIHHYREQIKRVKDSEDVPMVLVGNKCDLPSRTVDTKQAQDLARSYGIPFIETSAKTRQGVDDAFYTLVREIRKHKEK

As for `Cc1cccc2cc3[nH]ncc3c(-c3ncc4c(N5CCCC6(CNS(=O)(=O)N6)C5)nc(OCC56CCCN5CCC6)nc4c3F)c12` (stereo not drawn) [Example 808, 7-(8-fluoro-7-(5-methyl-1H-benzo[f]indazol-4-yl)-2-((tetrahydro-1H-pyrrolizin-7a(5H)-yl)methoxy)pyrido[4,3-d]pyrimidin-4-yl)-2-thia-1,3,7-triazaspiro[4.5]decane 2,2-dioxide], the IC50 in assay [1] was 1690 nM; in assay [2], greater than 10000 nM; in assay [3], 653 nM; in assay [4], less than 2 nM; in assay [5], less than 2 nM; in assay [6], 3070 nM. Further, the half-inhibitory concentration (IC50) in assay [7] was less than 2 nM.

As to `CN(C)C(=O)c1cc2n(n1)CCCN(c1nc(OCC34CCCN3CCC4)nc3c(F)c(-c4cc(O)cc(Cl)c4C4CC4)ncc13)C2` [Example 744, 5-(7-(3-chloro-2-cyclopropyl-5-hydroxyphenyl)-8-fluoro-2-((hexahydro-1H-pyrrolizin-7a-yl)methoxy)pyrido[4,3-d]pyrimidin-4-yl)-N,N-dimethyl-5,6,7,8-tetrahydro-4H-pyrazolo[1,5-a][1,4]diazepine-2-carboxamide], the IC50 in assay [1] was 5730 nM; in assay [2] it was greater than 10000 nM; in assay [3] it was greater than 10000 nM; in assay [4] it was less than 2 nM; in assay [5], less than 2 nM; in assay [6] it was 2730 nM. In addition, the half-maximal inhibitory concentration (IC50) in assay [7] worked out at 2 nM.

For the compound `C#Cc1c(F)ccc2cc(O)cc(-c3ncc4c(N5CCC[C@@](C)(O)C5)nc(OC[C@]56CCCN5[C@H](CO)CC6)nc4c3F)c12` [Example 814, (R)-1-(7-(8-ethynyl-7-fluoro-3-hydroxynaphthalen-1-yl)-8-fluoro-2-(((3S,7aR)-3-(hydroxymethyl)tetrahydro-1H-pyrrolizin-7a(5H)-yl)methoxy)pyrido[4,3-d]pyrimidin-4-yl)-3-methylpiperidin-3-ol], the IC50 is 402 nM in assay [1]; greater than 10000 nM in assay [2]; 176 nM in assay [3]; less than 2 nM in assay [4]; less than 2 nM in assay [5]; 485 nM in assay [6]. Moreover, in assay [7], the IC50 came out at 3 nM.

As for `CCc1c(F)ccc2cc(O)cc(-c3ncc4c(N5CCC6CNC(=O)NC6C5)nc(OC[C@@]56CCCN5C[C@H](F)C6)nc4c3F)c12` (stereo partly drawn) [Example 592, 7-(7-(8-ethyl-7-fluoro-3-hydroxynaphthalen-1-yl)-8-fluoro-2-(((2R,7aS)-2-fluorohexahydro-1H-pyrrolizin-7a-yl)methoxy)pyrido[4,3-d]pyrimidin-4-yl)octahydropyrido[3,4-d]pyrimidin-2(1H)-one], the IC50 in assay [1] was greater than 10000 nM; in assay [2], greater than 10000 nM; in assay [3], greater than 10000 nM; in assay [4], 119 nM; in assay [5], 790 nM; in assay [6], greater than 10000 nM. The same compound had a half-inhibitory concentration (IC50) in assay [7] of 281 nM.

`CCc1c(F)ccc2cc(O)cc(-c3ncc4c(N5CCC(S(C)(=N)=O)C5)nc(OC[C@@]56CCCN5C[C@H](F)C6)nc4c3F)c12` (stereo partly drawn) [Example 580, 5-ethyl-6-fluoro-4-(8-fluoro-2-(((2R,7aS)-2-fluorohexahydro-1H-pyrrolizin-7a-yl)methoxy) 4-(3-(S-methylsulfonimidoyl)pyrrolidin-1-yl)pyrido[4,3-d]pyrimidin-7-yl)naphthalen-2-ol]: the IC50 was greater than 10000 nM in assay [1]; greater than 10000 nM in assay [2]; 476 nM in assay [3]; 81 nM in assay [4]; 296 nM in assay [5]; greater than 10000 nM in assay [6]. Further, the IC50 in assay [7] came out at 30 nM.

Consider `CCc1c(F)ccc2cc(O)cc(-c3ncc4c(N5CCC[C@]6(CC[S@+]([O-])C6)C5)nc(OC[C@@]56CCCN5C[C@H](F)C6)nc4c3F)c12` (single isomer, unassigned) [Example 625], for which the 50% inhibitory concentration (IC50) was 2850 nM in assay [1]; greater than 10000 nM in assay [2]; 195 nM in assay [3]; 10 nM in assay [4]; 21 nM in assay [5]; 4740 nM in assay [6]. The 50% inhibitory concentration (IC50) in assay [7] was 17 nM.

For `Oc1cc(-c2ncc3c(N4C[C@@H]5C[C@H](C4)[C@H](O)C5)nc(OC[C@@]45CCCN4C[C@H](F)C5)nc3c2F)c2cc(C(F)(F)F)ccc2c1` [Example 817, (1R,5R,6R)-3-(8-fluoro-2-(((2R,7aS)-2-fluorotetrahydro-1H-pyrrolizin-7a(5H)-yl)methoxy)-7-(3-hydroxy-7-(trifluoromethyl)naphthalen-1-yl)pyrido[4,3-d]pyrimidin-4-yl)-3-azabicyclo[3.2.1]octan-6-ol], the concentration for half-maximal inhibition (IC50) in assay [1] was 43 nM; in assay [2], 5110 nM; in assay [3], 50 nM; in assay [4], less than 2 nM; in assay [5] it was 5 nM; in assay [6], 188 nM. Besides, the 50% inhibitory concentration (IC50) in assay [7] came to 2 nM.

As for `CCc1c(F)ccc2cc(O)c(F)c(-c3ncc4c(N5C[C@@H]6C[C@H](C5)[C@H](O)C6)nc(OC[C@@]56CCCN5C[C@H](F)C6)nc4c3F)c12` [Example 811, (1R,5R,6R)-3-(7-(8-ethyl-2,7-difluoro-3-hydroxynaphthalen-1-yl)-8-fluoro-2-(((2R,7aS)-2-fluorotetrahydro-1H-pyrrolizin-7a(5H)-yl)methoxy)pyrido[4,3-d]pyrimidin-4-yl)-3-azabicyclo[3.2.1]octan-6-ol], the 50% inhibitory concentration (IC50) was 68 nM in assay [1]; 5670 nM in assay [2]; 37 nM in assay [3]; 2 nM in assay [4]; 8 nM in assay [5]; 149 nM in assay [6]. This compound also returned an IC50 in assay [7] of 4 nM.

Take `CCc1c(F)ccc2cc(O)cc(-c3ncc4c(N5CCC[C@H](c6ccnn6C)CC5)nc(OC[C@@]56CCCN5C[C@H](F)C6)nc4c3F)c12` [Example 634, 5-ethyl-6-fluoro-4-(8-fluoro-2-(((2R,7aS)-2-fluorotetrahydro-1H-pyrrolizin-7a(5H)-yl)methoxy)-4-((S)-4-(1-methyl-1H-pyrazol-5-yl)azepan-1-yl)pyrido[4,3-d]pyrimidin-7-yl)naphthalen-2-ol]: the half-maximal inhibitory concentration (IC50) was 6210 nM in assay [1]; greater than 10000 nM in assay [2]; 2980 nM in assay [3]; 262 nM in assay [4]; 2240 nM in assay [5]; greater than 10000 nM in assay [6]. This compound also had an IC50 in assay [7] of 839 nM.

Consider `CCc1c(F)ccc2cc(O)cc(-c3ncc4c(NCc5cnn(C(=O)N(C)C)c5N)nc(OC[C@@]56CCCN5C[C@H](F)C6)nc4c3F)c12` [Example 640, 5-amino-4-(((7-(8-ethyl-7-fluoro-3-hydroxynaphthalen-1-yl)-8-fluoro-2-(((2R,7aS)-2-fluorohexahydro-1H-pyrrolizin-7a-yl)methoxy)pyrido[4,3-d]pyrimidin-4-yl)amino)methyl)-N,N-dimethyl-1H-pyrazole-1-carboxamide], for which the IC50 in assay [1] was 889 nM; in assay [2], greater than 10000 nM; in assay [3] it was 208 nM; in assay [4] it was 16 nM; in assay [5], 83 nM; in assay [6], 5130 nM. The IC50 in assay [7] stood at 17 nM.

As for `CCc1c(F)ccc2cc(O)cc(-c3ncc4c(NS(=O)(=O)C[C@H]5CNCCO5)nc(OC[C@@]56CCCN5C[C@H](F)C6)nc4c3F)c12` [Example 637, N-(7-(8-ethyl-7-fluoro-3-hydroxynaphthalen-1-yl)-8-fluoro-2-(((2R,7aS)-2-fluorotetrahydro-1H-pyrrolizin-7a(5H)-yl)methoxy)pyrido[4,3-d]pyrimidin-4-yl)-1-((R)-morpholin-2-yl)methanesulfonamide], the IC50 in assay [1] is greater than 10000 nM; in assay [2], greater than 10000 nM; in assay [3], greater than 10000 nM; in assay [4], 3790 nM; in assay [5], 1220 nM; in assay [6] it was greater than 10000 nM. The compound further gave a concentration for half-maximal inhibition (IC50) in assay [7] of 2250 nM.

Take `CCc1c(F)ccc2cc(O)cc(-c3ncc4c(N5C[C@H]6CC[C@@H](C5)N6C5CC(F)(F)C5)nc(OC[C@@]56CCCN5C[C@H](F)C6)nc4c3F)c12` [Example 831, 4-(4-((1R,5S)-8-(3,3-difluorocyclobutyl)-3,8-diazabicyclo[3.2.1]octan-3-yl)-8-fluoro-2-(((2R,7aS)-2-fluorotetrahydro-1H-pyrrolizin-7a(5H)-yl)methoxy)pyrido[4,3-d]pyrimidin-7-yl)-5-ethyl-6-fluoronaphthalen-2-ol]: the IC50 in assay [1] is 1080 nM; in assay [2], greater than 10000 nM; in assay [3] it was 13 nM; in assay [4], 36 nM; in assay [5], 42 nM; in assay [6] it was 331 nM. Moreover, in assay [7], the IC50 was 38 nM.
